Assay results from patent publication US20240124504A1, “AROMATIC HETEROCYCLIC COMPOUND, AND PHARMACEUTICAL COMPOSITION AND APPLICATION THEREOF” (GT APEIRON THERAPEUTICS LIMITED, priority 2020, published 2024).

How the values were obtained:
[1] = Caco-2 membrane permeability and efflux rate; type: in vitro ADME; settings: human, Caco-2, Caco-2, 5 μM
Method: The recovered Caco-2 cell suspension was seeded into a […] plate and cultured for 14-18 days. After being cultured for 14 days, the cells were fused and differentiated to be ready for a transport experiment. The Caco-2 cell plate was taken out from the incubator. Stock solutions of a to-be-tested compound and a control compound were formulated with DMSO and diluted with an HBSS (10 mM HEPES, pH 7.4) buffer to a final concentration of 5 μM. A test compound solution and a control drug solution were added to each well (top end) of an insert culture plate, and the HBSS (10 mM HEPES, pH 7.4) buffer was added to each well of a test compound receiving plate (basal end). When measuring the transport rate of the compound from the basal end to the top end, the test compound solution and the control drug solution were added to each well of the receiving plate (basal end), the HBSS (10 mM HEPES, pH 7.4) buffer solution was added to each well (top end) of the insert culture plate for the test compound solution, and incubation was carried out for 2 hours in a CO2 incubator at 37° C. After the transport experiment was completed, vortexing was carried out for 10 minutes at 1000 rpm. After sample quenching at each time point, LC/MS/MS analysis was carried out. A fluorescence value was measured after a two-hour transport experiment, a lucifer yellow solution was added in a transwell chamber (top end), a transport buffer solution was added in the basal end, and incubation was carried out for 30 minutes in the CO2 incubator at 37° C. The solution was taken out directly from the top end and the basal end (using basolateral wells) and transferred to a new 96-well plate. A cell fluorescence value was measured by a microplate reader (to detect membrane integrity), an excitation wavelength was […], and an emission wavelength was […]. All data were calculated by using Microsoft Excel, and a peak area was calculated according to chromatograms. An apparent permeability coefficient (Papp, unit: 10-6, cm/s) and an efflux rate (ER) of the compounds in Caco-2 cells were calculated by the specific concentrations of a receiving end and an administering end.

[2] = biological target: T1, CDK12 (aa686-1082)/cyclinK complex (Homo sapiens, UniProt Q9NYV4); experiment: In-vitro enzymatic inhibitory activity testing, CDK12 inhibition assay (Caliper EZ Reader II); type: biochemical; settings: CDK12/cyclinK 50 nM, 180 min at 27° C.; read-out: CDK12 IC50
T1 construct: A CDK12 (aa686-1082)/cyclinK complex (50 nM)
In short: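 CDK12 (aa686-1082)/cyclinK complex at 50 nM was pre-incubated with compound for 10 min, then reacted 180 min at 27° C with ATP and 2 μM 5-FAM-CDK9tide in pH 6.5 MES buffer with 10 mM MgCl2. Reactions were EDTA-quenched and product resolved electrophoretically; IC50 from nonlinear curve fit.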

[3] = test system: human breast cancer cells HCC70; experiment: Cell biological activity detection (CyQuant, 72 hours), HCC70; type: cell-based; settings: Homo sapiens, HCC70, 72 h, incubation for 72 hours
In short: (§1)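 IC50 derived from CyQuant Direct nuclear staining (488 nm excitation) after 72 h compound exposure at 37 °C, 5% CO2. Compounds tested in 9 concentrations from 10 μM, 1:4 steps, 0.2% DMSO, on A2780 or HCC70 cells plated overnight at 2000/well in RPMI 1640 + 10% FBS.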

ovarian cancer A2780 = experiment: Cell biological activity detection (CyQuant, 72 hours), A2780; type: cell-based, human; settings: Homo sapiens, A2780, 72 h, A2780 cells, incubation for 72 hours
In short: as §1

[4] = biological target: CDK7/cyclinH/MAT1 complex (Homo sapiens, UniProt P50613); experiment: In-vitro enzymatic inhibitory activity testing, CDK7 inhibition assay (Caliper EZ Reader II); type: biochemical; settings: CDK7/cyclinH/MAT1 6 nM, 180 min at 27° C.
In short: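 Enzyme preincubated 10 min with compound, then peptide substrate plus ATP added in 80 mM MES pH 6.5, 10 mM MgCl2 buffer; 180 min at 27 °C, stopped with EDTA.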

CDK9/cyclinT1 complex = CDK9/cyclinT1 complex (Homo sapiens, UniProt P50750); experiment: In-vitro enzymatic inhibitory activity testing, CDK9 inhibition assay (Caliper EZ Reader II); type: biochemical; settings: CDK9/cyclinT1 8 nM, 180 min at 27° C.
In short: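 Phosphorylated and unphosphorylated fluorescent peptide were resolved by mobility-shift electrophoresis, with IC50 taken from a nonlinear regression of dose-response data. Reactions ran 180 min at 27 °C in MES buffer pH 6.5 with MgCl2, after 10 min enzyme–compound preincubation, using 8 nM CDK9/cyclinT1 and 5-FAM-CDK9tide.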

CDK2/cyclinE1 complex = CDK2/cyclinE1 complex (Homo sapiens, UniProt P24941); experiment: In-vitro enzymatic inhibitory activity testing, CDK2 inhibition assay (Caliper EZ Reader II); type: biochemical; settings: CDK2/cyclinE1 0.5 nM, 180 min at 27° C.
In short: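 CDK2/cyclinE1 (0.5 nM) phosphorylated 5-FAM-CDK7tide (2 μM) in MES buffer pH 6.5 with MgCl2, Tween 20 and BSA. Substrate and product were separated electrophoretically on a Caliper EZ Reader II. IC50 values came from nonlinear dose-response fits.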

Sequence of CDK9/cyclinT1 complex (P50750 whole entry, species assumed): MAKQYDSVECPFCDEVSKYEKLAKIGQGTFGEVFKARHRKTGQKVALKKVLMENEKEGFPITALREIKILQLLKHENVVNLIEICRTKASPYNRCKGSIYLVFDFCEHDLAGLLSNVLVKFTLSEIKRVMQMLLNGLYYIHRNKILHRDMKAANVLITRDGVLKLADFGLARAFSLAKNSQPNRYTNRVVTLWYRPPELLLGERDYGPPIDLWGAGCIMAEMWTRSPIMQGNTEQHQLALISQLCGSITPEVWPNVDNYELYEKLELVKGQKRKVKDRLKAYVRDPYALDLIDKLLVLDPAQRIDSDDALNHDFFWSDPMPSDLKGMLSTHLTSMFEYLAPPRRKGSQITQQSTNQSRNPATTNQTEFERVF
Sequence of CDK9/cyclinT1 complex (O60563 whole entry partner, species assumed): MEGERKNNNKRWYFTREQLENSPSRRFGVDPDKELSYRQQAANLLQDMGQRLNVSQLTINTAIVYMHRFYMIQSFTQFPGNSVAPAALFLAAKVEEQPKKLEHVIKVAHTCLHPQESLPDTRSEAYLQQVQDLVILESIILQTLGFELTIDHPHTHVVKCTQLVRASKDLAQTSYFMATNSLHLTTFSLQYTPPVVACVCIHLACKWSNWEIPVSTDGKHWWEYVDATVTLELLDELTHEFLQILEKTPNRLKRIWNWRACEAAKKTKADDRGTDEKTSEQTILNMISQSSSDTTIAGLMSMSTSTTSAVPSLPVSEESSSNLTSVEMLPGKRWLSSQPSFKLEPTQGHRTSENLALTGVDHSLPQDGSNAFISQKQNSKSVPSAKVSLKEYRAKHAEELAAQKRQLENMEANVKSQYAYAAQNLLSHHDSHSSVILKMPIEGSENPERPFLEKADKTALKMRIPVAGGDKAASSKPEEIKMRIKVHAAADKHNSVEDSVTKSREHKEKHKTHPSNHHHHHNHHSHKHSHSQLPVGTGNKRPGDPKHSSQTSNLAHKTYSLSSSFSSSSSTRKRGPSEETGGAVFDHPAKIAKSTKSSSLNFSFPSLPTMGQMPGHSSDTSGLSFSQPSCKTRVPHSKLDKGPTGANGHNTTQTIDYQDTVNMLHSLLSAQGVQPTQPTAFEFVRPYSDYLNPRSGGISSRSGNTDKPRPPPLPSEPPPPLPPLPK
T1 sequence (Q9NYV4 686-1082, species assumed): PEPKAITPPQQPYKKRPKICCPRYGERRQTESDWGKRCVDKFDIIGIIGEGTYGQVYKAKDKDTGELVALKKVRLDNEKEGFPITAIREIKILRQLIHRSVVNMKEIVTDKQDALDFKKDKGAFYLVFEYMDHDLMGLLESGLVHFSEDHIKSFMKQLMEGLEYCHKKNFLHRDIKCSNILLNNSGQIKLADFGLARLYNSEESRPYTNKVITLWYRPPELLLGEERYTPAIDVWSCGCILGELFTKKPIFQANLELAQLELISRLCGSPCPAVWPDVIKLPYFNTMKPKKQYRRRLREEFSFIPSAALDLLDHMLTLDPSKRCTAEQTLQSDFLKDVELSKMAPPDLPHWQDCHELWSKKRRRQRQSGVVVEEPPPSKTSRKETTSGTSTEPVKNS
T1 sequence (O75909 whole entry partner, species assumed, the tested form may be a part): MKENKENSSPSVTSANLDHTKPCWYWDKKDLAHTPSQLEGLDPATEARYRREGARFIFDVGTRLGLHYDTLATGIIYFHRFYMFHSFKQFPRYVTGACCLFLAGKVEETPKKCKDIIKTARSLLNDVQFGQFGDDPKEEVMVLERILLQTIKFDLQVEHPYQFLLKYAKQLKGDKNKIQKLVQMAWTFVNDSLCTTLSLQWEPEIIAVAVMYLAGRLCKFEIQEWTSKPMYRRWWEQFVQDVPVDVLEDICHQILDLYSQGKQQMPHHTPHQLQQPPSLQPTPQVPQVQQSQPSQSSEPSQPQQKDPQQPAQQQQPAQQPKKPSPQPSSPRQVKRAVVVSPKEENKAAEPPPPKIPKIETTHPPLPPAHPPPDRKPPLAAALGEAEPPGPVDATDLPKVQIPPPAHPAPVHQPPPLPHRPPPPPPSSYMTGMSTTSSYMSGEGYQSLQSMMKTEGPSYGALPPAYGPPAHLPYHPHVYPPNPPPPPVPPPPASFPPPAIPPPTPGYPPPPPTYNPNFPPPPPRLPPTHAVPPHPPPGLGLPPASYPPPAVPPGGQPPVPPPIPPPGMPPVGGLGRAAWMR
Sequence of CDK7/cyclinH/MAT1 complex (P50613 whole entry, species assumed): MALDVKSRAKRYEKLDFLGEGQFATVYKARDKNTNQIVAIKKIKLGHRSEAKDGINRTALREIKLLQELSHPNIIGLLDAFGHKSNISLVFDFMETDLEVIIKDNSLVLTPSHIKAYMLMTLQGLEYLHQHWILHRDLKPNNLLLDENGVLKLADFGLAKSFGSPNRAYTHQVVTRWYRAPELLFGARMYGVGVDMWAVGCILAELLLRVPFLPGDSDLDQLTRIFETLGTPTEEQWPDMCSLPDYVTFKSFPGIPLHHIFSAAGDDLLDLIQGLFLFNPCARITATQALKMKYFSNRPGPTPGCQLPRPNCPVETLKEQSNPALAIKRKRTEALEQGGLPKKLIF
Sequence of CDK7/cyclinH/MAT1 complex (P51946 whole entry partner, species assumed): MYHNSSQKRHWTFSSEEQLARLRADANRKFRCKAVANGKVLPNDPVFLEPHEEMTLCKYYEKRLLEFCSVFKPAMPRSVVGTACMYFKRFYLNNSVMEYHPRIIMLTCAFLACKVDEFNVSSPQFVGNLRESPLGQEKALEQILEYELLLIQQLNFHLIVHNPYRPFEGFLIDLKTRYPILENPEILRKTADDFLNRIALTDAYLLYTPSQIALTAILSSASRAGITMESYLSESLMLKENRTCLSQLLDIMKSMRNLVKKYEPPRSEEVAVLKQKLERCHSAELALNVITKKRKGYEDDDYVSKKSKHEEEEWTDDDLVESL
Sequence of CDK7/cyclinH/MAT1 complex (P51948 whole entry partner, species assumed): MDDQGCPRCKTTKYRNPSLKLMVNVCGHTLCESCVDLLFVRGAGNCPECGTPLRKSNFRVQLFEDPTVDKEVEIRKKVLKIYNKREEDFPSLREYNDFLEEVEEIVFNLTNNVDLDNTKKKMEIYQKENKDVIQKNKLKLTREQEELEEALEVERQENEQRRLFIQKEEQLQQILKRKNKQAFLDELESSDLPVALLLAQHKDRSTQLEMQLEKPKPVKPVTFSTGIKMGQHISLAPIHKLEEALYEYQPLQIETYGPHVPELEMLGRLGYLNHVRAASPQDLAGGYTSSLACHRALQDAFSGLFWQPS

| SMILES | Papp B→A at 2 h, 5 μM ([1]; basal end to top end) | efflux ratio at 2 h, 5 μM ([1]; read-out: ER (efflux rate)) | Papp A→B at 2 h, 5 μM ([1]; top end to basal end) | IC50 [2] | IC50 [3] | IC50 (ovarian cancer A2780) | IC50 [4] | IC50 (CDK9/cyclinT1 complex) | IC50 (CDK2/cyclinE1 complex) |
| --- | --- | --- | --- | --- | --- | --- | --- | --- | --- |
| CP(C)(=O)c1cccc2c(-c3nc(N[C@H]4CCCNC4)ncc3C(F)(F)F)c[nH]c12 [A control compound WO2018013867 (353), reference compound] | 159 nm/s | 70.7 | 2.3 nm/s | – | – | – | – | – | – |
| CP(C)(=O)c1cccc2c(-c3nc(NCC(O)C(F)(F)F)ncc3C(F)(F)F)c[nH]c12 (stereo not drawn) [Compound 145, Dimethyl(3-(2-((3,3,3-trifluoro-2-hydroxypropyl)amino)-5-(trifluoromethyl)pyrimidin-4-yl)-1H-indole-7-yl)phosphine oxide] | – | – | – | > 50 µM | 0.02 to 0.2 µM | 0.02 to 0.2 µM | 0.02 to 0.2 µM | > 50 µM | > 50 µM |
| CP(C)(=O)c1cccc2c(-c3nc(NCC4(O)CCCC4)ncc3C(F)(F)F)c[nH]c12 [Compound 151] | – | – | – | > 50 µM | 0.02 to 0.2 µM | 0.02 to 0.2 µM | 0.02 to 0.2 µM | > 50 µM | 5 to 50 µM |
| CP(C)(=O)c1cccc2c(-c3nc(N[C@@H](CO)C4CC4)ncc3C(F)(F)F)c[nH]c12 [Compound 159, (R)-(3-(2-((1-cyclopropyl-2-hydroxyethyl)amino)-5-(trifluoromethyl)pyrimidin-4-yl)-1H-indole-7-yl)dimethylphosphine oxide] | – | – | – | > 50 µM | 0.02 to 0.2 µM | 0.02 to 0.2 µM | < 0.02 µM | > 50 µM | 5 to 50 µM |
| CP(C)(=O)c1cccc2c(-c3nc(NCC4(CO)CC4)ncc3C(F)(F)F)c[nH]c12 [Compound 160] | – | – | – | > 50 µM | 0.2 to 5 µM | 0.2 to 5 µM | 0.02 to 0.2 µM | > 50 µM | 5 to 50 µM |
| CC[C@](C)(CO)Nc1ncc(C(F)(F)F)c(-c2c[nH]c3c(P(C)(C)=O)cccc23)n1 [Compound 161, (R)-(3-(2-((1-hydroxy-2-methylbutan-2-yl)amino)-5-(trifluoromethyl)pyrimidin-4-yl)-1H-indole-7-yl)dimethylphosphine oxide] | – | – | – | > 50 µM | 0.2 to 5 µM | 0.2 to 5 µM | < 0.02 µM | > 50 µM | 5 to 50 µM |
| CC(C)C(O)CNc1ncc(C(F)(F)F)c(-c2c[nH]c3c(P(C)(C)=O)cccc23)n1 (stereo not drawn) [Compound 162, (3-(2-((2-hydroxy-3-methylbutyl)amino)-5-(trifluoromethyl)pyrimidin-4-yl)-1H-indole-7-yl)dimethylphosphine oxide] | – | – | – | > 50 µM | 0.2 to 5 µM | 0.02 to 0.2 µM | 0.02 to 0.2 µM | > 50 µM | 5 to 50 µM |
| C[C@H](Nc1ncc(C(F)(F)F)c(-c2c[nH]c3c(P(C)(C)=O)cccc23)n1)C(C)(C)O [Compound 163, (S)-(3-(2-((3-hydroxy-3-methylbutan-2-yl)amino)-5-(trifluoromethyl)pyrimidin-4-yl)-1H-indole-7-yl)dimethylphosphine oxide] | – | – | – | > 50 µM | 0.2 to 5 µM | 0.02 to 0.2 µM | 0.02 to 0.2 µM | > 50 µM | 5 to 50 µM |
| CP(C)(=O)c1cccc2c(-c3nc(NCC4(O)CC4)ncc3C(F)(F)F)c[nH]c12 [Compound 164] | – | – | – | > 50 µM | 0.02 to 0.2 µM | 0.02 to 0.2 µM | < 0.02 µM | > 50 µM | 5 to 50 µM |
| CP(C)(=O)c1cccc2c(-c3nc(N[C@H]4CCCC[C@@H]4O)ncc3C(F)(F)F)c[nH]c12 [Compound 165, (3-(2-(((1S,2S)-2-hydroxycyclohexyl)amino)-5-(trifluoromethyl)pyrimidin-4-yl)-1H-indole-7-yl)dimethylphosphine oxide] | – | – | – | > 50 µM | 0.02 to 0.2 µM | 0.02 to 0.2 µM | 0.02 to 0.2 µM | > 50 µM | 5 to 50 µM |
| CP(C)(=O)c1cccc2c(-c3nc(NC4(CO)CCOCC4)ncc3C(F)(F)F)c[nH]c12 [Compound 166, (3-(2-((4-(hydroxymethyl)tetrahydro-2H-pyran-4-yl)amino)-5-(trifluoromethyl)pyrimidin-4-yl)-1H-indole-7-yl)dimethylphosphine oxide] | – | – | – | > 50 µM | 0.2 to 5 µM | 0.2 to 5 µM | 0.02 to 0.2 µM | > 50 µM | > 50 µM |
| CP(C)(=O)c1cccc2c(-c3nc(N[C@@H]4COCC[C@H]4O)ncc3C(F)(F)F)c[nH]c12 [Compound 167] | – | – | – | > 50 µM | 0.2 to 5 µM | 0.2 to 5 µM | 0.02 to 0.2 µM | > 50 µM | > 50 µM |
| C[C@@H](O)CNc1ncc(C(F)(F)F)c(-c2c[nH]c3c(P(C)(C)=O)cccc23)n1 [Compound 172, (R)-(3-(2-((2-hydroxypropyl)amino)-5-(trifluoromethyl)pyrimidin-4-yl)-1H-indole-7-yl)dimethylphosphine oxide] | – | – | – | > 50 µM | 0.02 to 0.2 µM | 0.02 to 0.2 µM | 0.02 to 0.2 µM | > 50 µM | 0.2 to 5 µM |
| C[C@H](O)CNc1ncc(C(F)(F)F)c(-c2c[nH]c3c(P(C)(C)=O)cccc23)n1 [Compound 173, (S)-(3-(2-((2-hydroxypropyl)amino)-5-(trifluoromethyl)pyrimidin-4-yl)-1H-indole-7-yl)dimethylphosphine oxide] | – | – | – | > 50 µM | 0.02 to 0.2 µM | 0.02 to 0.2 µM | < 0.02 µM | > 50 µM | 5 to 50 µM |
| CP(C)(=O)c1cccc2c(-c3nc(NCC4(O)CCOCC4)ncc3C(F)(F)F)c[nH]c12 [Compound 175] | – | – | – | > 50 µM | 0.02 to 0.2 µM | 0.2 to 5 µM | 0.02 to 0.2 µM | > 50 µM | 5 to 50 µM |
| C[C@@H](CO)Nc1ncc(Br)c(-c2c[nH]c3c(P(C)(C)=O)cccc23)n1 [Compound 177, (S)-(3-(5-bromo-2-((1-hydroxypropan-2-yl)amino)pyrimidin-4-yl)-1H-indole-7-yl)dimethylphosphine oxide] | – | – | – | 5 to 50 µM | < 0.02 µM | < 0.02 µM | < 0.02 µM | 5 to 50 µM | 0.2 to 5 µM |
| Cc1cnc(N[C@@H](C)CO)nc1-c1c[nH]c2c(P(C)(C)=O)cccc12 [Compound 178] | – | – | – | > 50 µM | 0.2 to 5 µM | 0.02 to 0.2 µM | 0.02 to 0.2 µM | > 50 µM | 5 to 50 µM |
| C[C@@H](CO)Nc1ncc(C(F)(F)F)c(-c2c[nH]c3nc(C4=CCOCC4)ccc23)n1 [Compound 181, (S)-2-((4-(6-(3,6-dihydro-2H-pyran-4-yl)-1H-pyrrolo[2,3-b]pyridin-3-yl)-5-(trifluoromethyl)pyrimidin-2-yl)amino)propan-1-ol] | – | – | – | 5 to 50 µM | 0.2 to 5 µM | 0.02 to 0.2 µM | 0.02 to 0.2 µM | > 50 µM | 0.2 to 5 µM |
| CP(C)(=O)c1cccc2c(-c3nc(NC(CO)CO)ncc3C(F)(F)F)c[nH]c12 [Compound 194, (3-(2-((1,3-dihydroxypropan-2-yl)amino)-5-(trifluoromethyl)pyrimidin-4-yl)-1H-indole-7-yl)dimethylphosphine oxide] | – | – | – | > 50 µM | 0.02 to 0.2 µM | < 0.02 µM | < 0.02 µM | > 50 µM | 5 to 50 µM |
